For one experiment, the target named is T1, D2 receptor (Homo sapiens, UniProt P14416).
T1 construct: expressed in transfected cells; membrane homogenates
The experiment is described as follows: Dopamine receptor D2 binding affinity, competitive radioligand binding with [3H]methyl-spiperone. The following applies: membranes of recombinant cells, [3H]methyl-spiperone 0.2 nM, 60 min at 37° C. On the procedure: Dopamine receptor D2 binding affinity of compounds of formula I was also evaluated. […] After a 60 minute incubation at 37° C., the incubation was terminated by vacuum filtration. The filters were washed with buffer and the filters were counted for radioactivity using liquid scintillation spectrometry. Concentrations ranging from 10^−12 M to 10^−5 M of the test compound were evaluated. […] Binding in the presence of varying concentrations of test compound is expressed as a percentage of specific binding in the absence of test compound. The results are plotted as log % bound versus log concentration of test compound. […] A linear regression line of data points is plotted, from which the IC50 value is determined and the Ki value is determined based upon the following equation: […]

Experiment [1] deals with T2, short form of human D2 receptor (Homo sapiens, UniProt P14416).
T2 construct: expressed in transfected cells; host or cells: CHO cells
The experiment is described as follows: D2 functional assay (cAMP-Glo, CHO cells). Format: cell-based. The following applies: forskolin 10 μM, read-out: D2 antagonist Kb. The procedure:
Dopamine D2 receptor inhibits adenylyl cyclase activity. CHO cells (Chinese Hamster Ovary cell-line) transfected with short form of human D2 receptor were used for D2 functional testing. Cells were seeded at a density of 10 000 cells/well in white-walled 96-well plates one day before the experiment. Forskolin at 10 μM was used to increase the intracellular level of cAMP. Compounds were tested according to the procedure from cAMP-Glo™ kit manufacturer's instruction.

Another experiment has as its target T3, human H1 receptor (Homo sapiens, UniProt P35367).
T3 construct: expressed in transfected cells; host or cells: CHO cells
Nature of the experiment: H1 functional assay (calcium response, CHO cells). The experiment is classed as cell-based. Conditions: agonist histamine, 30 min preincubation, Fluo-4NW calcium, read-out: H1 antagonist Kb. The source says: The histamine receptor H1 is linked to an intracellular G-protein (Gq) that activates phospholipase C and the phosphatidylinositol (PIP2) signaling pathway. The pathway starts with stimulation of the receptor and further activation of phospholipase C (PLC). Inositol-1,4,5-triphosphate (IP3), which is one of the products of PLC activity, binds to IP3 receptor in smooth ER. Opening of IP3R, which acts as a calcium ion channel, causes an increase in Ca^2+ concentration in the cytosol, which can be quantitatively measured using calcium-sensitive fluorescent dyes.
H1 antagonism was measured in CHO cells (Chinese Hamster Ovary cell-line) transfected with pcDNA for human H1 receptor. Cells were dispensed into 96-well assay plates at a density of 25 000-30 000 cells per well and, following over night recovery, assayed for calcium response. Tests were performed using Fluo-4NW Calcium Assay Kit (Molecular Probes #F36206) and standard testing procedure for this kit. Cells were preincubated with test compound for 30 min, then endogenous agonist histamine was added. Fluorescence was measured by FLEXstation 3 (Molecular Devices). The apparent dissociation constants (Kb) were calculated by means of GraphPhad Prism 5 software using the modified Cheng Prusoff equation (Kb=IC50/(1+(A/EC50A)), where A=concentration of reference agonist in the assay and EC50A=EC50 value of the reference agonist). For each IC50 determination, agonist dose response curve is run in parallel with the antagonist, on the same experimental plate. Curves maximal and minimal values should be reached in assays and it is checked if Prism uses proper maximal and minimal values for curve fitting.

A further experiment deals with human alpha1 receptor. The experiment is described as follows: Alpha1 functional assay (calcium response, LNCaP cells). Format: cell-based. Conditions: agonist noradrenaline, 30 min preincubation, Fluo-4NW calcium, read-out: Alpha1 antagonist Kb. The text has this: The alpha-1 (α1) adrenergic receptor is coupled to the Gq heterotrimeric G-protein that activates phospholipase C and the phosphatidylinositol (PIP2) signaling pathway. The pathway starts with stimulation of the receptor and further activation of phospholipase C (PLC). Inositol-1,4,5-triphosphate (IP3), which is one of the products of PLC activity, binds to IP3 receptor in smooth ER. Opening of IP3R, which acts as a calcium ion channel, causes an increase in Ca^2+ concentration in cytosol, which can be quantitatively measured using calcium-sensitive fluorescent dyes.
Alpha1 antagonism was measured in LNCaP (Human lymph node carcinoma of the prostate) cells expressing human alpha1 receptor. Cells were dispensed into 96-well assay plates at a density of 30 000 cells per well and, following over night recovery, assayed for calcium response. Tests were performed using Fluo-4NW Calcium Assay Kit (Molecular Probes #F36206) and standard testing procedure for this kit. Cells were preincubated with test compound for 30 min, then endogenous agonist noradrenaline was added. Fluorescence was measured by FLEXstation 3 (Molecular Devices). The apparent dissociation constants (Kb) were calculated by means of GraphPhad Prism 5 software using the modified Cheng Prusoff equation (Kb=IC50/(1+(A/EC50A)), where A=concentration of reference agonist in the assay and EC50A=EC50 value of the reference agonist). For each IC50 determination, agonist dose response curve is run in parallel with the antagonist, on the same experimental plate. Curves maximal and minimal values should be reached in assays, and it is checked if Prism uses proper maximal and minimal values for curve fitting.

The target in experiment [2] is T4, human 5-HT6 (Homo sapiens, UniProt P50406). Nature of the experiment: 5-HT6 binding affinity, competitive radioligand binding with [3H]-LSD.
In experiment [3] the target is T4, human 5-HT6. Nature of the experiment: 5-HT6 functional assay (calcium response, Chem-10 host cells). Format: cell-based. Set-up: host or cells: Chem-10 host cells, co-expressing a recombinant promiscuous G protein. The following applies: agonist serotonin, 30 min preincubation, Fluo-4NW calcium, read-out: 5-HT6 antagonist Kb. The source says: The serotonin receptor 5-HT6 is a Gs coupled receptor. In the brain it responds to serotonin and other agonists by increasing adenyl cyclase mediated production of cyclic AMP. 5-HT6 can be also functionally tested using different coupling types. Millipore's cloned human 5-HT6-expressing cell line is made in the Chem-10 host, which supports high levels of recombinant 5-HT6 expression on the cell surface and contains optimized levels of a recombinant promiscuous G protein to couple the receptor to the calcium signaling pathway. Cells were thawed, resuspended in media, dispensed into 96-well assay plates at a density of 27500 cells per well and, following over night recovery, assayed for calcium response. Tests were performed using Fluo-4NW Calcium Assay Kit (Molecular Probes #F36206) and standard testing procedure for this kit. Cells were preincubated with test compound for 30 min, then endogenous agonists serotonin was added. Fluorescence was measured by FLEXstation 3 (Molecular Devices). The apparent dissociation constants (Kb) were calculated by means of GraphPhad Prism 5 software using the modified Cheng Prusoff equation (Kb=IC50/(1+(A/EC50A)), where A=concentration of reference agonist in the assay and EC50A=EC50 value of the reference agonist). For each IC50 determination, agonist dose response curve is run in parallel with the antagonist, on the same experimental plate. Curves maximal and minimal values should be reached in assays and it is checked if Prism uses proper maximal and minimal values for curve fitting.

Among the data in US20160009697A1, “PYRIDINE DERIVATIVES AS 5-HT6 RECEPTOR ANTAGONISTS” (Selvita S.A., priority 2013, published 2016) are Ki and Kb values, retold here.

The Ki is the equilibrium dissociation constant of an inhibitor or competing ligand from its target. The term Kb denotes the affinity of an antagonist, worked out from how it opposes an agonist.

T2 sequence (P14416 1-414 isoform P14416-2): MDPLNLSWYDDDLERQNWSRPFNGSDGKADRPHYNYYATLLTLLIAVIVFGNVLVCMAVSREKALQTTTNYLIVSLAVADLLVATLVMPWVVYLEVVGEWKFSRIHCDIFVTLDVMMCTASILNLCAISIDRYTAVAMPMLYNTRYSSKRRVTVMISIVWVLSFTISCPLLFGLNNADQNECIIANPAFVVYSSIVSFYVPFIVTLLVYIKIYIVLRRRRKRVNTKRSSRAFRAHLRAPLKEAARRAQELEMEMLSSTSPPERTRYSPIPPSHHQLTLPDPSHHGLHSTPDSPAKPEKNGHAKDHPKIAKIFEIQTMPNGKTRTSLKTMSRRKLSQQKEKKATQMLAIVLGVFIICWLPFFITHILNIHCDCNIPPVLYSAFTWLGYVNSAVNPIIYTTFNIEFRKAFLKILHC
T1 sequence (P14416 whole entry): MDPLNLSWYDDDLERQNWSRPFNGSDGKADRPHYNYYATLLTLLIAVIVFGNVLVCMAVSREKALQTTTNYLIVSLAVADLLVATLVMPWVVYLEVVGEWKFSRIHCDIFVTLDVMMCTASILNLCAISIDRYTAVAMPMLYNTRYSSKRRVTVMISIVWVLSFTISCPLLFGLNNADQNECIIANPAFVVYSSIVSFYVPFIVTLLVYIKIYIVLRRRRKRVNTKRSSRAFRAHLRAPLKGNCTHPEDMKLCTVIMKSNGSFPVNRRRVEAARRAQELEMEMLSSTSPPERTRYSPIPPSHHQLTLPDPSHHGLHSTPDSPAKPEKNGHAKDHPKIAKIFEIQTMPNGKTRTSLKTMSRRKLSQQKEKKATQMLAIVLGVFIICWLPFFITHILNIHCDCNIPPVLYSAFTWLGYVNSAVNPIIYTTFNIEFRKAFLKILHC
T3 sequence (P35367 whole entry): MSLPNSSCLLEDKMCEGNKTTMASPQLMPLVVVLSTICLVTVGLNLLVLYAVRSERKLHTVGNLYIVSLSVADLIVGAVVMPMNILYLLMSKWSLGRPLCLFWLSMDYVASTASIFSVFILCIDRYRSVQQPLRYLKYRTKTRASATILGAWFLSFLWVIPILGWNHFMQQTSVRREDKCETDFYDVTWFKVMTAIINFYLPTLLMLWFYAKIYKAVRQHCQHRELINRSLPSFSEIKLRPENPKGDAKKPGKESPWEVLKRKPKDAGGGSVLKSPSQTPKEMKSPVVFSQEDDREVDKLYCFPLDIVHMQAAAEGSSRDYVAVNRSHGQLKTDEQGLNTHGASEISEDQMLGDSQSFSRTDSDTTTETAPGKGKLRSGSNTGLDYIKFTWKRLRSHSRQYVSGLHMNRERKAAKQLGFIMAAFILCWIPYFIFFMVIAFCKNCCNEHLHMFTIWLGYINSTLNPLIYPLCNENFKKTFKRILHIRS
T4 sequence (P50406 whole entry): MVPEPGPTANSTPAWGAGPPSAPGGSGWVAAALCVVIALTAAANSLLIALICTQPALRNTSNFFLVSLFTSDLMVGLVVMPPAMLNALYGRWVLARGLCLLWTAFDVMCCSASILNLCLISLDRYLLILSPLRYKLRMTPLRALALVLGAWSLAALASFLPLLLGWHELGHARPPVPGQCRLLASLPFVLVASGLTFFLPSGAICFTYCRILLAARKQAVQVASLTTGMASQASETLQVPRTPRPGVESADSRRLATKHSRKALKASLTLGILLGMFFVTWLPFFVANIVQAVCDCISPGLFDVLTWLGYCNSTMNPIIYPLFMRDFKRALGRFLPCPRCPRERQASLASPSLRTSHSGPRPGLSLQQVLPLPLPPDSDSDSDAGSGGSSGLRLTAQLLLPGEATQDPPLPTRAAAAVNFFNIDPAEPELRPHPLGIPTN

In the case of `CN1CCN(c2cc(-c3ccc4ccccc4n3)cc(CC3CCOCC3)n2)CC1` [Example 2, 2-[2-(4-Methylpiperazin-1-yl)-6-(oxan-4-ylmethyl)pyridin-4-yl]quinoline], the Ki at D2 receptor came to 4100 nM; at human 5-HT6 [2], 39.6 nM. Further, the Kb in experiment [1] was over 3500 nM; on human H1 receptor it was 462 nM; in the experiment with human alpha1 receptor, over 2000 nM; at human 5-HT6 [3], 204 nM.

As to `COc1ccc(-c2cc(CC3CCOCC3)nc(N3CCC(N)CC3)c2)cc1` [Example 6, 1-[4-(4-Methoxyphenyl)-6-(oxan-4-ylmethyl)pyridin-2-yl]piperidin-4-amine], the Ki was over 10000 nM at D2 receptor and 38.8 nM at human 5-HT6 [2]. The Kb is over 3500 nM in experiment [1], over 1000 nM at human H1 receptor, over 2000 nM with human alpha1 receptor and over 1000 nM on human 5-HT6 [3].

Turning to `COc1ccc(-c2cc(CC3CCOCC3)nc(N3CCNC(C)(C)C3)c2)cc1` [Example 8, 1-[4-(4-Methoxyphenyl)-6-(oxan-4-ylmethyl)pyridin-2-yl]-3,3-dimethylpiperazine], the Ki was over 10000 nM at D2 receptor and 36.1 nM on human 5-HT6 [2]. Further, the Kb in experiment [1] is over 3500 nM; at human H1 receptor, 19.4 nM; in the experiment with human alpha1 receptor, 1600 nM; at human 5-HT6 [3] it was 4.7 nM.

On to `CN1CCN(c2cc(-c3ccccn3)cc(CC3CCOCC3)n2)CC1` [Example 3, 1-Methyl-4-[6-(oxan-4-ylmethyl)-4-(pyridin-2-yl)pyridin-2-yl]piperazine], for which the inhibitory constant (Ki) on D2 receptor worked out at 1180 nM; at human 5-HT6 [2] it was 22.2 nM. For the same compound, the Kb in experiment [1] was over 2000 nM; at human H1 receptor, over 5000 nM; in the experiment with human alpha1 receptor it was 83.8 nM; at human 5-HT6 [3], 81.8 nM.

As to `COc1ccc(-c2cc(C(C)C3CCOCC3)nc(N3CCN(C)CC3)c2)cc1` (stereo not drawn) [Example 7, 1-[4-(4-Methoxyphenyl)-6-[1-(oxan-4-yl)ethyl]pyridin-2-yl]-4-methyl-piperazine], the inhibition constant Ki on D2 receptor was over 10000 nM; on human 5-HT6 [2], 12.2 nM. In addition, the Kb was 340 nM in experiment [1], over 2000 nM at human H1 receptor, 29.3 nM with human alpha1 receptor and 0.01 nM on human 5-HT6 [3].

As to `COc1ccc(-c2cc(CC3CCOCC3)nc(N3CCN(C)CC3)c2)c(F)c1` [Example 5, 1-[4-(2-Fluoro-4-methoxyphenyl)-6-(oxan-4-ylmethyl)pyridin-2-yl]-4-methylpiperazine], the Ki on D2 receptor came out at 1250 nM; on human 5-HT6 [2], 22.8 nM. The antagonist dissociation constant (Kb) is over 2000 nM in experiment [1], 1230 nM on human H1 receptor, 171 nM with human alpha1 receptor and 5.06 nM on human 5-HT6 [3].

For `CN1CCN(c2cc(-c3cscn3)cc(CC3CCOCC3)n2)CC1` [Example 4, 1-Methyl-4-[6-(oxan-4-ylmethyl)-4-(1,3-thiazol-4-yl)pyridin-2-yl]-piperazine], the Ki on D2 receptor was over 10000 nM; at human 5-HT6 [2], 14.3 nM. Moreover, the Kb in experiment [1] is 781 nM; at human H1 receptor it was over 5000 nM; in the experiment on human alpha1 receptor, 203 nM; at human 5-HT6 [3] it was 1.97 nM.
